Test results reported in ChEMBL document CHEMBL1629601, “In vitro susceptibility of field isolates of Leishmania donovani to Miltefosine and amphotericin B: correlation with sodium antimony gluconate susceptibility and implications for treatment in areas of endemicity” (2009).
≈ marks a conversion by molar mass, not a printed value.

Key:
Format in all cases: functional
Conditions in all cases: read-out: ED50 (the source's name)
Leishmania donovani [1] = experiment: Antimicrobial activity against Leishmania donovani K192 promastigote
Leishmania donovani [2] = experiment: Antimicrobial activity against Leishmania donovani K429 promastigote
Leishmania donovani [3] = experiment: Antimicrobial activity against Leishmania donovani K132 amastigote
Leishmania donovani [4] = experiment: Antimicrobial activity against Leishmania donovani K135 amastigote
Leishmania donovani [5] = experiment: Antimicrobial activity against Leishmania donovani LdAG83 promastigote
Leishmania donovani [6] = experiment: Antimicrobial activity against Leishmania donovani K149 amastigote
Leishmania donovani [7] = experiment: Antimicrobial activity against Leishmania donovani K135 promastigote
Leishmania donovani [8] = experiment: Antimicrobial activity against Leishmania donovani K498 promastigote
Leishmania donovani [9] = experiment: Antimicrobial activity against Leishmania donovani K132 promastigote
Leishmania donovani [10] = experiment: Antimicrobial activity against Leishmania donovani K216 amastigote
Leishmania donovani [11] = experiment: Antimicrobial activity against Leishmania donovani K516 amastigote
Leishmania donovani [12] = experiment: Antimicrobial activity against Leishmania donovani K251 amastigote
Leishmania donovani [13] = experiment: Antimicrobial activity against Leishmania donovani K59 promastigote
Leishmania donovani [14] = experiment: Antimicrobial activity against Leishmania donovani K111 amastigote
Leishmania donovani [15] = experiment: Antimicrobial activity against Leishmania donovani K80 promastigote
Leishmania donovani [16] = experiment: Antimicrobial activity against Leishmania donovani K435 promastigote
Leishmania donovani [17] = experiment: Antimicrobial activity against Leishmania donovani K80 amastigote
Leishmania donovani [18] = experiment: Antimicrobial activity against Leishmania donovani K131 amastigote
Leishmania donovani [19] = experiment: Antimicrobial activity against Leishmania donovani K516 promastigote
Leishmania donovani [20] = experiment: Antimicrobial activity against Leishmania donovani K509 amastigote
Leishmania donovani [21] = experiment: Antimicrobial activity against Leishmania donovani K133 amastigote
Leishmania donovani [22] = experiment: Antimicrobial activity against Leishmania donovani K417 promastigote
Leishmania donovani [23] = experiment: Antimicrobial activity against Leishmania donovani K131 promastigote
Leishmania donovani [24] = experiment: Antimicrobial activity against Leishmania donovani K251 promastigote
Leishmania donovani [25] = experiment: Antimicrobial activity against Leishmania donovani LdAG83 amastigote
Leishmania donovani [26] = experiment: Antimicrobial activity against Leishmania donovani K435 amastigote
Leishmania donovani [27] = experiment: Antimicrobial activity against Leishmania donovani K439 promastigote
Leishmania donovani [28] = experiment: Antimicrobial activity against Leishmania donovani K481 amastigote
Leishmania donovani [29] = experiment: Antimicrobial activity against Leishmania donovani K417 amastigote
Leishmania donovani [30] = experiment: Antimicrobial activity against Leishmania donovani K111 promastigote
Leishmania donovani [31] = experiment: Antimicrobial activity against Leishmania donovani K498 amastigote
Leishmania donovani [32] = experiment: Antimicrobial activity against Leishmania donovani K216 promastigote
Leishmania donovani [33] = experiment: Antimicrobial activity against Leishmania donovani K429 amastigote
Leishmania donovani [34] = experiment: Antimicrobial activity against Leishmania donovani K149 promastigote
Leishmania donovani [35] = experiment: Antimicrobial activity against Leishmania donovani K133 promastigote
Leishmania donovani [36] = experiment: Antimicrobial activity against Leishmania donovani K439 amastigote
Leishmania donovani [37] = experiment: Antimicrobial activity against Leishmania donovani K481 promastigote
Leishmania donovani [38] = experiment: Antimicrobial activity against Leishmania donovani K59 amastigote
Leishmania donovani [39] = experiment: Antimicrobial activity against Leishmania donovani K192 amastigote

C[C@@H]1[C@H](O)[C@@H](C)/C=C/C=C/C=C/C=C/C=C/C=C/C=C/[C@H](O[C@@H]2O[C@H](C)[C@@H](O)[C@H](N)[C@@H]2O)C[C@@H]2O[C@](O)(C[C@@H](O)C[C@@H](O)[C@H](O)CC[C@@H](O)C[C@@H](O)CC(=O)O[C@H]1C)C[C@H](O)[C@H]2C(=O)O [AMPHOTERICIN B]
EC50 (Leishmania donovani [1]): 0.78 µg/mL (≈ 0.844 µM) | EC50 (Leishmania donovani [2]): 1.34 µg/mL (≈ 1.45 µM) | EC50 (Leishmania donovani [3]): 0.22 µg/mL (≈ 0.238 µM) | EC50 (Leishmania donovani [4]): 0.25 µg/mL (≈ 0.271 µM) | EC50 (Leishmania donovani [5]): 0.023 µg/mL (≈ 0.0249 µM) | EC50 (Leishmania donovani [6]): 0.28 µg/mL (≈ 0.303 µM) | EC50 (Leishmania donovani [7]): 0.31 µg/mL (≈ 0.335 µM) | EC50 (Leishmania donovani [8]): 1.16 µg/mL (≈ 1.26 µM) | EC50 (Leishmania donovani [9]): 1.22 µg/mL (≈ 1.32 µM) | EC50 (Leishmania donovani [10]): 0.25 µg/mL (≈ 0.271 µM) | EC50 (Leishmania donovani [11]): 0.62 µg/mL (≈ 0.671 µM) | EC50 (Leishmania donovani [12]): 0.55 µg/mL (≈ 0.595 µM) | EC50 (Leishmania donovani [13]): 0.5 µg/mL (≈ 0.541 µM) | EC50 (Leishmania donovani [14]): 0.2 µg/mL (≈ 0.216 µM) | EC50 (Leishmania donovani [15]): 0.5 µg/mL (≈ 0.541 µM) | EC50 (Leishmania donovani [16]): 0.57 µg/mL (≈ 0.617 µM) | EC50 (Leishmania donovani [17]): 0.18 µg/mL (≈ 0.195 µM) | EC50 (Leishmania donovani [18]): 0.35 µg/mL (≈ 0.379 µM) | EC50 (Leishmania donovani [19]): 1.26 µg/mL (≈ 1.36 µM) | EC50 (Leishmania donovani [20]): 0.65 µg/mL (≈ 0.703 µM) | EC50 (Leishmania donovani [21]): 0.21 µg/mL (≈ 0.227 µM) | EC50 (Leishmania donovani [22]): 0.69 µg/mL (≈ 0.747 µM) | EC50 (Leishmania donovani [23]): 0.43 µg/mL (≈ 0.465 µM) | EC50 (Leishmania donovani [24]): 1.42 µg/mL (≈ 1.54 µM) | EC50 (Leishmania donovani [25]): 0.017 µg/mL (≈ 0.0184 µM) | EC50 (Leishmania donovani [26]): 0.17 µg/mL (≈ 0.184 µM) | EC50 (Leishmania donovani [27]): 1.62 µg/mL (≈ 1.75 µM) | EC50 (Leishmania donovani [28]): 0.55 µg/mL (≈ 0.595 µM) | EC50 (Leishmania donovani [29]): 0.44 µg/mL (≈ 0.476 µM) | EC50 (Leishmania donovani [30]): 1.02 µg/mL (≈ 1.1 µM) | EC50 (Leishmania donovani [31]): 0.54 µg/mL (≈ 0.584 µM) | EC50 (Leishmania donovani [32]): 0.52 µg/mL (≈ 0.563 µM) | EC50 (Leishmania donovani [33]): 0.37 µg/mL (≈ 0.4 µM) | EC50 (Leishmania donovani [34]): 1.46 µg/mL (≈ 1.58 µM) | EC50 (Leishmania donovani [35]): 0.65 µg/mL (≈ 0.703 µM) | EC50 (Leishmania donovani [36]): 0.77 µg/mL (≈ 0.833 µM) | EC50 (Leishmania donovani [37]): 0.69 µg/mL (≈ 0.747 µM) | EC50 (Leishmania donovani [38]): 0.18 µg/mL (≈ 0.195 µM) | EC50 (Leishmania donovani [39]): 0.67 µg/mL (≈ 0.725 µM)
